Literature values, collected in US7579333B2 (Teva Pharmaceutical Industries Ltd., priority 2004, dated 2009).

How the values were obtained:
[1] = in vivo
[2] = system: femoral bone mass density; conditions: 1 year; 60 mg/day raloxifene, 10 mg/day alendronate; 331 patients
[3] = system: new vertebral fractures; conditions: post-menopausal women with osteoporosis

| pH at which best absorbed [1] | Compound | improvement in femoral bone mass density [2] | decrease in incidence of new vertebral fractures [3] |
| --- | --- | --- | --- |
| ~6 | NCCCC(O)(P(=O)(O)O)P(=O)(O)O [alendronate] |  |  |
|  | O=C(c1ccc(OCCN2CCCCC2)cc1)c1c(-c2ccc(O)cc2)sc2cc(O)ccc12 [raloxifene] | 1.7% | 30-50% |
